Numbering of substitutions follows the chain as printed.
Assays:
Assay in all cases: fluorimetric titration, […] fit
Assay type in all cases: binding
hDPP III [1] = target: T1, hDPP III (Homo sapiens, UniProt Q9NY33); conditions: TRIS-HCl buffer I = 0.02 M, pH 7.4
T1 construct: gene DPP3; recombinant, C-terminal His-tag, expressed in E. coli from pET21b, Ni-NTA purified
T1 sequence (Q9NY33 2-737): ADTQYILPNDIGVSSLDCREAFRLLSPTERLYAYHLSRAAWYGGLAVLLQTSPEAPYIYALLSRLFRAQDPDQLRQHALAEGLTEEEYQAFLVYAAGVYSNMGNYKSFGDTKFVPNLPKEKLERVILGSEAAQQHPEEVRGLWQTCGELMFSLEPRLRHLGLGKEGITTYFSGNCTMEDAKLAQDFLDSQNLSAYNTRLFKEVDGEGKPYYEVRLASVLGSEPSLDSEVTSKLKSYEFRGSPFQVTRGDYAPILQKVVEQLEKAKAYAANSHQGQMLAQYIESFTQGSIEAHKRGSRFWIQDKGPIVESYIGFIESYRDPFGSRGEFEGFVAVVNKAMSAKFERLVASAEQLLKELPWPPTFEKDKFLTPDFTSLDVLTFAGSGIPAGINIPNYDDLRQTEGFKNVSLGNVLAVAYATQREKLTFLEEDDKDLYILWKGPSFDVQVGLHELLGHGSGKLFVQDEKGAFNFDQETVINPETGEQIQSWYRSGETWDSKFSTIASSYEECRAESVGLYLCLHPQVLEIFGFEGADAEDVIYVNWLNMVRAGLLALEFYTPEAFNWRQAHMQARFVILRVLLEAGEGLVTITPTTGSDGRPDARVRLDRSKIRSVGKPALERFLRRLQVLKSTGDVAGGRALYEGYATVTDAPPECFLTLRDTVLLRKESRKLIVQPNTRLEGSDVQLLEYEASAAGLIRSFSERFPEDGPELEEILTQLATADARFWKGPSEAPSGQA

hDPP III [2] = target: T2, hDPP III (Homo sapiens, UniProt Q9NY33, E451A); conditions: read-out: logKs (converted)
T2 construct: gene DPP3; recombinant, C-terminal His-tag, expressed in E. coli from pET21b, Ni-NTA purified
T2 sequence (Q9NY33 2-737 E451A): T1 sequence (Q9NY33 2-737) with E450A

[3] = target: T3, BSA (bovine serum albumin) (Bos taurus, UniProt P02769); conditions: read-out: logKs (converted)
T3 construct: gene ALB; commercial native protein (Sigma Aldrich), mature serum albumin
T3 sequence (P02769 25-607): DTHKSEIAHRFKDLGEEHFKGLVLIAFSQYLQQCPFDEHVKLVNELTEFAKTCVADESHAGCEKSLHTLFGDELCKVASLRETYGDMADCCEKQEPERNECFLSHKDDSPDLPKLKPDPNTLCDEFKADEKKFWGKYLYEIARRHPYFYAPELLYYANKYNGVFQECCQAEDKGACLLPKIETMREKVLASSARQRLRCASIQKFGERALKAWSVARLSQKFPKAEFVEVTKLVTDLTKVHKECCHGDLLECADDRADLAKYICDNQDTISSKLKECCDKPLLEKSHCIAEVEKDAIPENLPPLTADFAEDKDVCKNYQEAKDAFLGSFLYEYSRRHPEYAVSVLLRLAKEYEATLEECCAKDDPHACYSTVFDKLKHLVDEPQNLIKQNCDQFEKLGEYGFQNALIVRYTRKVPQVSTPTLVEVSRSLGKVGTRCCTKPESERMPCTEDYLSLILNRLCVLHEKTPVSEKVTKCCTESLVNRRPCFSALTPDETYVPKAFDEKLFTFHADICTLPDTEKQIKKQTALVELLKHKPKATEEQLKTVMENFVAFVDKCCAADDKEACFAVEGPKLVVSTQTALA

SMILES | logKs (hDPP III [1]; λexc 400 nm) | Kd (hDPP III [2]) [nM] | Kd [3] [nM] | logKs (hDPP III [1]; λexc 342 and 403 nm)
Cc1cc(-c2cn(C(CCCCN)C(=O)O)nn2)cc(C)c1B(c1c(C)cc(N(C)C)cc1C)c1c(C)cc(N(C)C)cc1C (stereo not drawn) [compound 1, Triaryl-borane-amino acid conjugate 1] | performed fluorimetric titrations with wild type (wt) hDPP III | 251 | 501 | –
Cc1cc(-c2cn(C(CCCCNC(=O)CCCc3ccc4ccc5cccc6ccc3c4c56)C(=O)O)nn2)cc(C)c1B(c1c(C)cc(N(C)C)cc1C)c1c(C)cc(N(C)C)cc1C (stereo not drawn) [compound 2, Triaryl-borane-amino acid-pyrene conjugate 2] | – | 398 | 398 | performed fluorimetric titrations with wild type (wt) hDPP III

— publication PMC8398983, “Triarylborane Dyes as a Novel Non-Covalent and Non-Inhibitive Fluorimetric Markers for DPP III Enzyme” (Molecules, 2021)
